# Experimental data taken from US10472341B2, “Bicyclic tetrahydrothiazepine derivatives useful for the treatment of neoplastic and/or infectious diseases” (APEIRON BIOLOGICS AG, priority 2015, dated 2019).
# Tested on: CD8 cells & tumor cell lines (K562, M21, CRL2505, MDA-MB-231, A549, TC71, MG63, RD, U138MG)
# Experiment: Isolated CD8 cells in co-culture with tumor cell lines of diverse origin: IFN-gamma, IL-2, granzyme
# Assay type: cell-based, human
# Procedure: Isolated PBMCs, NK cells or CD8 positive cells were plated in Xvivo medium at 1.5*10^5 cells per in 96 well culture plates in the presence of 0.3*10^4 tumor cells where indicated. Cytokine secretion was determined by ELISA, immune cell activation (using Beckman-Coulter Abs CD25-PC5, CD69-PC7), cell viability and numbers by flow cytometry (Beckman-Coulter FC500 or Gallios) using 7-AAD exclusion as criterion for living cells. PBMCs were isolated and incubated with and without compounds, either alone or in co-culture with different tumor cells.
structure (smiles),measurement,setting,value
"Cl.N[C@H]1CS(=O)(=O)c2cc(F)c(C(=O)NCCCC(F)(F)F)cc2N(Cc2ccc(Cl)cc2)C1=O [Example 70, (3R)-3-amino-5-[(4-chlorophenyl)methyl]-8-fluoro-1,1,4-trioxo-N-(4,4,4-trifluoro-butyl)-2,3,4,5-tetrahydro-1λ^6,5-benzothiazepine-7-carboxamide hydrochloride]",Granzyme,"CD8 cells & A549, 0.1 μM",0.04 ng/mL
same,IFN-gamma,"CD8 cells & A549, 0.1 μM",0.01 ng/mL
same,IL-2,"CD8 cells & A549, 0.1 μM",0.00 ng/mL
same,Granzyme,"CD8 cells & A549, 0.3 μM",0.09 ng/mL
same,IFN-gamma,"CD8 cells & A549, 0.3 μM",0.03 ng/mL
same,IL-2,"CD8 cells & A549, 0.3 μM",0.15 ng/mL
same,Granzyme,"CD8 cells & A549, 1 μM",0.10 ng/mL
same,IFN-gamma,"CD8 cells & A549, 1 μM",0.08 ng/mL
same,IL-2,"CD8 cells & A549, 1 μM",0.36 ng/mL
same,Granzyme,"CD8 cells & A549, 3 μM",0.07 ng/mL
same,IFN-gamma,"CD8 cells & A549, 3 μM",0.07 ng/mL
same,IL-2,"CD8 cells & A549, 3 μM",0.28 ng/mL
same,Granzyme,"CD8 cells & A549, 10 μM",0.16 ng/mL
same,IFN-gamma,"CD8 cells & A549, 10 μM",0.16 ng/mL
same,IL-2,"CD8 cells & A549, 10 μM",0.59 ng/mL
same,Granzyme,"CD8 cells & K562, 0.1 μM",1.58 ng/mL
same,IFN-gamma,"CD8 cells & K562, 0.1 μM",6.97 ng/mL
same,IL-2,"CD8 cells & K562, 0.1 μM",3.86 ng/mL
same,Granzyme,"CD8 cells & K562, 0.3 μM",2.38 ng/mL
same,IFN-gamma,"CD8 cells & K562, 0.3 μM",7.57 ng/mL
same,IL-2,"CD8 cells & K562, 0.3 μM",3.20 ng/mL
same,Granzyme,"CD8 cells & K562, 1 μM",1.81 ng/mL
same,IFN-gamma,"CD8 cells & K562, 1 μM",11.23 ng/mL
same,IL-2,"CD8 cells & K562, 1 μM",4.08 ng/mL
same,Granzyme,"CD8 cells & K562, 3 μM",3.91 ng/mL
same,IFN-gamma,"CD8 cells & K562, 3 μM",8.44 ng/mL
same,IL-2,"CD8 cells & K562, 3 μM",3.72 ng/mL
same,Granzyme,"CD8 cells & K562, 10 μM",4.83 ng/mL
same,IFN-gamma,"CD8 cells & K562, 10 μM",8.26 ng/mL
same,IL-2,"CD8 cells & K562, 10 μM",2.82 ng/mL
same,Granzyme,"CD8 cells & M21, 0.1 μM",0.24 ng/mL
same,IFN-gamma,"CD8 cells & M21, 0.1 μM",0.00 ng/mL
same,IL-2,"CD8 cells & M21, 0.1 μM",0.39 ng/mL
same,Granzyme,"CD8 cells & M21, 0.3 μM",0.53 ng/mL
same,IFN-gamma,"CD8 cells & M21, 0.3 μM",0.02 ng/mL
same,IL-2,"CD8 cells & M21, 0.3 μM",0.31 ng/mL
same,Granzyme,"CD8 cells & M21, 1 μM",0.41 ng/mL
same,IFN-gamma,"CD8 cells & M21, 1 μM",0.06 ng/mL
same,IL-2,"CD8 cells & M21, 1 μM",0.67 ng/mL
same,Granzyme,"CD8 cells & M21, 3 μM",0.40 ng/mL
same,IFN-gamma,"CD8 cells & M21, 3 μM",0.03 ng/mL
same,IL-2,"CD8 cells & M21, 3 μM",0.64 ng/mL
same,Granzyme,"CD8 cells & M21, 10 μM",0.50 ng/mL
same,IFN-gamma,"CD8 cells & M21, 10 μM",0.10 ng/mL
same,IL-2,"CD8 cells & M21, 10 μM",0.47 ng/mL
same,Granzyme,"CD8 cells & MDA-MB-231, 0.1 μM",1.86 ng/mL
same,IFN-gamma,"CD8 cells & MDA-MB-231, 0.1 μM",10.72 ng/mL
same,IL-2,"CD8 cells & MDA-MB-231, 0.1 μM",1.51 ng/mL
same,Granzyme,"CD8 cells & MDA-MB-231, 0.3 μM",3.40 ng/mL
same,IFN-gamma,"CD8 cells & MDA-MB-231, 0.3 μM",20.55 ng/mL
same,IL-2,"CD8 cells & MDA-MB-231, 0.3 μM",2.14 ng/mL
same,Granzyme,"CD8 cells & MDA-MB-231, 1 μM",4.23 ng/mL
same,IFN-gamma,"CD8 cells & MDA-MB-231, 1 μM",22.31 ng/mL
same,IL-2,"CD8 cells & MDA-MB-231, 1 μM",2.40 ng/mL
same,Granzyme,"CD8 cells & MDA-MB-231, 3 μM",5.20 ng/mL
same,IFN-gamma,"CD8 cells & MDA-MB-231, 3 μM",25.24 ng/mL
same,IL-2,"CD8 cells & MDA-MB-231, 3 μM",3.21 ng/mL
same,Granzyme,"CD8 cells & MDA-MB-231, 10 μM",5.93 ng/mL
same,IFN-gamma,"CD8 cells & MDA-MB-231, 10 μM",24.22 ng/mL
same,IL-2,"CD8 cells & MDA-MB-231, 10 μM",3.63 ng/mL
same,Granzyme,"CD8 cells & MG63, 0.1 μM",0.23 ng/mL
same,IFN-gamma,"CD8 cells & MG63, 0.1 μM",0.92 ng/mL
same,IL-2,"CD8 cells & MG63, 0.1 μM",0.00 ng/mL
same,Granzyme,"CD8 cells & MG63, 0.3 μM",0.29 ng/mL
same,IFN-gamma,"CD8 cells & MG63, 0.3 μM",1.43 ng/mL
same,IL-2,"CD8 cells & MG63, 0.3 μM",0.00 ng/mL
same,Granzyme,"CD8 cells & MG63, 1 μM",0.28 ng/mL
same,IFN-gamma,"CD8 cells & MG63, 1 μM",1.79 ng/mL
same,IL-2,"CD8 cells & MG63, 1 μM",0.00 ng/mL
same,Granzyme,"CD8 cells & MG63, 3 μM",0.38 ng/mL
same,IFN-gamma,"CD8 cells & MG63, 3 μM",1.92 ng/mL
same,IL-2,"CD8 cells & MG63, 3 μM",0.00 ng/mL
same,Granzyme,"CD8 cells & MG63, 10 μM",0.44 ng/mL
same,IFN-gamma,"CD8 cells & MG63, 10 μM",2.36 ng/mL
same,IL-2,"CD8 cells & MG63, 10 μM",0.00 ng/mL
same,Granzyme,"CD8 cells & RD, 0.1 μM",0.09 ng/mL
same,IFN-gamma,"CD8 cells & RD, 0.1 μM",0.12 ng/mL
same,IL-2,"CD8 cells & RD, 0.1 μM",0.00 ng/mL
same,Granzyme,"CD8 cells & RD, 0.3 μM",0.16 ng/mL
same,IFN-gamma,"CD8 cells & RD, 0.3 μM",0.45 ng/mL
same,IL-2,"CD8 cells & RD, 0.3 μM",0.00 ng/mL
same,Granzyme,"CD8 cells & RD, 1 μM",0.20 ng/mL
same,IFN-gamma,"CD8 cells & RD, 1 μM",0.54 ng/mL
same,IL-2,"CD8 cells & RD, 1 μM",0.00 ng/mL
same,Granzyme,"CD8 cells & RD, 3 μM",0.17 ng/mL
same,IFN-gamma,"CD8 cells & RD, 3 μM",0.65 ng/mL
same,IL-2,"CD8 cells & RD, 3 μM",0.00 ng/mL
same,Granzyme,"CD8 cells & RD, 10 μM",0.30 ng/mL
same,IFN-gamma,"CD8 cells & RD, 10 μM",1.59 ng/mL
same,IL-2,"CD8 cells & RD, 10 μM",0.00 ng/mL
same,Granzyme,"CD8 cells & TC71, 0.1 μM",0.06 ng/mL
same,IFN-gamma,"CD8 cells & TC71, 0.1 μM",0.04 ng/mL
same,IL-2,"CD8 cells & TC71, 0.1 μM",0.58 ng/mL
same,Granzyme,"CD8 cells & TC71, 0.3 μM",0.08 ng/mL
same,IFN-gamma,"CD8 cells & TC71, 0.3 μM",0.11 ng/mL
same,IL-2,"CD8 cells & TC71, 0.3 μM",0.97 ng/mL
same,Granzyme,"CD8 cells & TC71, 1 μM",0.10 ng/mL
same,IFN-gamma,"CD8 cells & TC71, 1 μM",0.14 ng/mL
same,IL-2,"CD8 cells & TC71, 1 μM",1.25 ng/mL
same,Granzyme,"CD8 cells & TC71, 3 μM",0.10 ng/mL
same,IFN-gamma,"CD8 cells & TC71, 3 μM",0.27 ng/mL
same,IL-2,"CD8 cells & TC71, 3 μM",1.14 ng/mL
same,Granzyme,"CD8 cells & TC71, 10 μM",0.15 ng/mL
same,IFN-gamma,"CD8 cells & TC71, 10 μM",0.38 ng/mL
same,IL-2,"CD8 cells & TC71, 10 μM",1.57 ng/mL
same,Granzyme,"CD8 cells & U138MG, 0.1 μM",0.03 ng/mL
same,IFN-gamma,"CD8 cells & U138MG, 0.1 μM",0.00 ng/mL
same,IL-2,"CD8 cells & U138MG, 0.1 μM",0.00 ng/mL
same,Granzyme,"CD8 cells & U138MG, 0.3 μM",0.04 ng/mL
same,IFN-gamma,"CD8 cells & U138MG, 0.3 μM",0.01 ng/mL
same,IL-2,"CD8 cells & U138MG, 0.3 μM",0.00 ng/mL
same,Granzyme,"CD8 cells & U138MG, 1 μM",0.01 ng/mL
same,IFN-gamma,"CD8 cells & U138MG, 1 μM",0.02 ng/mL
same,IL-2,"CD8 cells & U138MG, 1 μM",0.04 ng/mL
same,Granzyme,"CD8 cells & U138MG, 3 μM",0.03 ng/mL
same,IFN-gamma,"CD8 cells & U138MG, 3 μM",0.02 ng/mL
same,IL-2,"CD8 cells & U138MG, 3 μM",0.02 ng/mL
same,Granzyme,"CD8 cells & U138MG, 10 μM",0.05 ng/mL
same,IFN-gamma,"CD8 cells & U138MG, 10 μM",0.06 ng/mL
same,IL-2,"CD8 cells & U138MG, 10 μM",0.08 ng/mL
same,Granzyme,"CD8 cells only, 0.1 μM",0.05 ng/mL
same,IFN-gamma,"CD8 cells only, 0.1 μM",0.00 ng/mL
same,IL-2,"CD8 cells only, 0.1 μM",0.00 ng/mL
same,Granzyme,"CD8 cells only, 0.3 μM",0.04 ng/mL
same,IFN-gamma,"CD8 cells only, 0.3 μM",0.00 ng/mL
same,IL-2,"CD8 cells only, 0.3 μM",0.00 ng/mL
same,Granzyme,"CD8 cells only, 1 μM",0.05 ng/mL
same,IFN-gamma,"CD8 cells only, 1 μM",0.00 ng/mL
same,IL-2,"CD8 cells only, 1 μM",0.00 ng/mL
same,Granzyme,"CD8 cells only, 3 μM",0.04 ng/mL
same,IFN-gamma,"CD8 cells only, 3 μM",0.00 ng/mL
same,IL-2,"CD8 cells only, 3 μM",0.00 ng/mL
same,Granzyme,"CD8 cells only, 10 μM",0.05 ng/mL
same,IFN-gamma,"CD8 cells only, 10 μM",0.00 ng/mL
same,IL-2,"CD8 cells only, 10 μM",0.00 ng/mL
